Measured values as given in patent US20210009557A1, “ACYCLIC CXCR4 INHIBITORS AND USES THEREOF” (X4 Pharmaceuticals, Inc., priority 2017, published 2021).

Key:
[1] = target: T1, Jurkat cells expressing CXCR4 (Homo sapiens, UniProt P61073); experiment: Chemokine (CXCL12-AF647) binding inhibition assay; conditions: CXCL12-AF647 25 ng/mL, read-out: IC50 CXCL-12 binding Jurkat
T1 construct: Jurkat cells expressing CXCR4; endogenous in cells; host or cells: Jurkat cells
Description: Jurkat cells expressing CXCR4 were washed once with assay buffer (Hanks' balanced salt solution with 20 mM HEPES buffer and 0.2% bovine serum albumin, pH 7.4) and then incubated for 15 min at room temperature with the test compounds diluted in assay buffer at dose-dependent concentrations. Subsequently, CXCL12-AF647 (25 ng/mL) was added to the compound-incubated cells. The cells were incubated for 30 min at room temperature. Thereafter, the cells were washed twice in assay buffer, fixed in 1% paraformaldehyde in PBS, and analyzed on the FL4 channel of a FACSCalibur flow cytometer equipped with a 635-nm red diode laser (Becton Dickinson, San Jose, Calif., USA).
The percentages of inhibition of CXCL12-AF647 binding were calculated according to the formula: [1−((MFI−MFINC)/(MFIPC−MFINC))]×100 where MFI is the mean fluorescence intensity of the cells incubated with CXCL12-AF647 in the presence of the inhibitor, MFINC is the mean fluorescence intensity measured in the negative control (i.e., autofluorescence of unlabeled cells), and MFIPC is the mean fluorescence intensity of the positive control (i.e., cells exposed to CXCL12-AF647 alone).

[2] = target: T2, CXCR-4 transfected U87 cell line (U87.CXCR4) (Homo sapiens, UniProt P61073); experiment: Intracellular CXCL-12-induced calcium mobilization assay (FLIPR); format: cell-based; conditions: U87.CXCR4 cells; CXCL-12 25-50 ng/mL; compounds added 15 minutes before; read-out: IC50 CXCL-12 Ca2+ flux U87.CXCR4+
T2 construct: expressed in transfected cells; host or cells: U87 cell line (U87.CXCR4)
Description: Intracellular calcium mobilization induced by chemokines orchemokine-derived peptides were evaluated using a calcium responsive fluorescent probe and a FLIPR system. The CXCR-4 transfected U87 cell line (U87.CXCR4) cells were seeded in gelatine-coated black-wall 96-well plates at 20,000 cells per well and incubated for 12 hours. Cells were then loaded with the fluorescent calcium probe Fluo-2 acetoxymethyl at 4 μM final concentration in assay buffer (Hanks' balanced salt solution with 20 mM HEPES buffer and 0.2% bovine serum albumin, pH 7.4) for 45 min at 37′C. The intracellular calcium mobilization induced by the CXCL-12 (25-50 ng/mL) was then measured at 37° C. by monitoring the fluorescence as a function of time in all the wells simultaneously using a fluorometric imaging plate reader (FLIPR Tetra, Molecular Devices).

in vitro = conditions: human, Caco-2, pH 7.4
Description: The goal of this assay was to evaluate the intestinal absorption potential of drug candidates using Caco-2 cell lines.
Experimental Procedure • 1. Pre-warm Pre-warm HBSS Buffer in 37° C. water bath • 2. Sonicate Take compounds from −20° C., sonicate for a few minutes (no less than 1 minute) • 3. Solution preparation
For A-to-B Direction: • HBSS buffer with 0.3% DMSO and 5 μM LY: add 150 μL DMSO and 50 μL LY (5 mM) into 50 ml HBSS buffer (pH 7.4). • HBSS buffer with 0.1% DMSO and 5 μM LY: add 50 μL DMSO and 50 μL LY (5 mM) into 50 mL HBSS buffer (pH 7.4).
For B-to-A Direction: • HBSS buffer with 0.3% DMSO: add 150 μL DMSO into 50 ml HBSS buffer (pH 7.4). HBSS buffer with 0.1% DMSO: add 50 μL DMSO into 50 ml HBSS buffer (pH 7.4).
For A-to-B Direction: • Prepare HBSS buffer with 0.4% DMSO: add 200 μL DMSO into 50 ml HBSS buffer (pH 7.4).
For B-to-A Direction: • Prepare HBSS buffer with 0.4% DMSO and 5 μM LY: add 200 μL DMSO and 50 μL LY (5 mM) into 50 ml HBSS buffer (pH 7.4).
• 4. Measure TEER Take cell culture plate out of incubator, wash the cell monolayers with HBSS buffer, and then measure TEER values at Rm temperature. • 5. Centrifuge Centrifuge the compound solution (from step 3) at 4000 rpm for 5 min before loading to donor chambers. • 6. Dosing Add solution based on the volumes listed in the following table (make sure to take extra 100 μL of donor sample for T0 as Backup).
• 7. Apical LYTO samples To determine LY concentration in the apical chamber, take 100 μL sample from apical chambers into an opaque plate for LYTO. • 8. Pre-warm Pre-warm apical and basolateral plates at 37° C. for about 5 min, then begin transport by placing the apical plate onto basolateral plate. • 9. Incubation Keep the plates in incubator at 37° C. for 90 min. • 10.
• Prepare 1× solution: • 3 μL (20×)+57 μL of 0.4% DMSO HBSS+60 μL ACN with IS (Osalmid or Imipramine)—120 μL (1×) • 11. Transport termination Separate the apical plate from the basolateral plate after 90-min incubation. • 12. Measure LY Take 100 μL samples from basolateral plate to an opaque plate as LYT90. • 13. Measure LY concentrations for LYTO and LYT90 by Fluorometer (at excitation of 485 nm/emission of 535 nm). • 14.
Drug permeability: Papp=(VA/(Area×time))×([drug]accepter/(([drug]initial, donor)×Dilution Factor) • Where VA is the volume in the acceptor well, area is the surface area of the membrane and time is the total transport time in seconds.
For Millicell-24 Cell Culture Plates: surface area of the membrane=0.7 cm^2, VA=0.8 mL (A-to-B) or 0.4 mL (B-to-A)

T2 sequence (P61073 whole entry): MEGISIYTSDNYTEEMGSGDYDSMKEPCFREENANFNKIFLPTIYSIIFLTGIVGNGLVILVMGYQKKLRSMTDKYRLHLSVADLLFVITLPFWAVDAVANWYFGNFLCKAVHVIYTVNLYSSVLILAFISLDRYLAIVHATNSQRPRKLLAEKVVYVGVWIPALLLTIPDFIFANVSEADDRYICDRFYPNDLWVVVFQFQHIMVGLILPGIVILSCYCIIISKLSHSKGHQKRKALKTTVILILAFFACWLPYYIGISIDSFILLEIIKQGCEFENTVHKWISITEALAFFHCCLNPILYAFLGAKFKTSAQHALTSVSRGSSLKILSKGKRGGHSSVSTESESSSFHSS
T1 sequence (P61073 whole entry): as above

Structure (SMILES) | IC50 [1] | IC50 [2] | Papp A→B at 90 min, 10 μM (in vitro) | Papp B→A at 90 min, 10 μM (in vitro) | efflux ratio at 90 min, 10 μM (in vitro)
Cc1cccnc1CN(CCc1cnc[nH]1)C(C)c1ccccn1 (stereo not drawn) [Compound I-8] | 0.01 to 100 nM | ≥ 1000 nM | < 5 ×10⁻⁶ cm/s | > 10 ×10⁻⁶ cm/s | 10 to 30
Cc1cccnc1CN(CCc1cnc[nH]1)Cc1ncccc1C [Compound I-9] | 0.01 to 100 nM | 0.01 to 100 nM | < 5 ×10⁻⁶ cm/s | > 10 ×10⁻⁶ cm/s | 10 to 30
Cc1cccnc1CN(CCc1cnc[nH]1)Cc1ncccc1Cl [Compound I-10] | 0.01 to 100 nM | 100 to 1000 nM | 5 to 10 ×10⁻⁶ cm/s | > 10 ×10⁻⁶ cm/s | 0.1 to 10
CC(c1ccccn1)N(CCC(N)=O)Cc1ccccn1 (stereo not drawn) [Compound I-11] | 100 to 1000 nM | ≥ 1000 nM | 5 to 10 ×10⁻⁶ cm/s | > 10 ×10⁻⁶ cm/s | 0.1 to 10
c1cnc2c(c1)CCC[C@@H]2N(CCC1CCCO1)Cc1nc2ccccc2[nH]1 (stereo partly drawn) [Compound I-17] | 0.01 to 100 nM | ≥ 1000 nM | – | – | –
COCCCN(Cc1nc2ccccc2[nH]1)[C@H]1CCCc2cccnc21 [Compound I-18] | 0.01 to 100 nM | 100 to 1000 nM | – | – | –
CC(=O)NCCCN(Cc1ncccc1C)[C@H]1CCCc2cccnc21 [Compound I-29] | 0.01 to 100 nM | ≥ 1000 nM | – | – | –
CC(=O)NCCN(Cc1ncccc1C)[C@H]1CCCc2cccnc21 [Compound I-30] | 0.01 to 100 nM | 100 to 1000 nM | – | – | –
CC[C@H]1OC(=O)[C@H](C)[C@@H](O[C@H]2C[C@@](C)(OC)[C@@H](O)[C@H](C)O2)[C@H](C)[C@@H](O[C@@H]2O[C@H](C)C[C@H](N(C)C)[C@H]2O)[C@](C)(O)C[C@@H](C)C(=O)[C@H](C)[C@@H](O)[C@]1(C)O [Erythromycin, reference compound] | – | – | – | – | > 116
COCCc1ccc(OCC(O)CNC(C)C)cc1 (stereo not drawn) [Metoprolol, reference compound] | – | – | > 10 ×10⁻⁶ cm/s | > 10 ×10⁻⁶ cm/s | –

Now from value to compound:

IC50 [1] | IC50 [2] | Papp A→B at 90 min, 10 μM (in vitro) | Papp B→A at 90 min, 10 μM (in vitro) | efflux ratio at 90 min, 10 μM (in vitro) | Structure (SMILES)
0.01 to 100 nM | ≥ 1000 nM | – | – | – | CC(c1ccccn1)N(CCc1ccccn1)Cc1ccccn1 (stereo not drawn) [Compound I-1, 2-(Pyridin-2-yl)-N-(1-(pyridin-2-yl)ethyl)-N-(pyridin-2-ylmethyl)ethan-1-amine]
0.01 to 100 nM | 0.01 to 100 nM | > 10 ×10⁻⁶ cm/s | > 10 ×10⁻⁶ cm/s | 0.1 to 10 | CC(c1ccccn1)N(CCc1ccccn1)Cc1nc2ccccc2[nH]1 (stereo not drawn) [Compound I-2, N-((1H-benzo[d]imidazol-2-yl)methyl)-2-(pyridin-2-yl)-N-(1-(pyridin-2-yl)ethyl)ethanamine]
0.01 to 100 nM | 100 to 1000 nM | > 10 ×10⁻⁶ cm/s | > 10 ×10⁻⁶ cm/s | 0.1 to 10 | Cc1cccnc1CN(CCc1ccccn1)C(C)c1ccccn1 (stereo not drawn) [Compound I-3]
0.01 to 100 nM | 100 to 1000 nM | > 10 ×10⁻⁶ cm/s | > 10 ×10⁻⁶ cm/s | 0.1 to 10 | Cc1cccnc1CN(CCc1ccccn1)Cc1ncccc1C [Compound I-4]
0.01 to 100 nM | 100 to 1000 nM | > 10 ×10⁻⁶ cm/s | > 10 ×10⁻⁶ cm/s | 0.1 to 10 | Cc1cccnc1CN(CCc1ccccn1)Cc1ncccc1Cl [Compound I-5]
0.01 to 100 nM | ≥ 1000 nM | < 5 ×10⁻⁶ cm/s | > 10 ×10⁻⁶ cm/s | 10 to 30 | CC(c1ccccn1)N(CCc1cnc[nH]1)Cc1ccccn1 (stereo not drawn) [Compound I-6]
0.01 to 100 nM | ≥ 1000 nM | < 5 ×10⁻⁶ cm/s | > 10 ×10⁻⁶ cm/s | > 30 | CC(c1ccccn1)N(CCc1cnc[nH]1)Cc1nc2ccccc2[nH]1 (stereo not drawn) [Compound I-7, N-((1H-benzo[d]imidazol-2-yl)methyl)-N-(2-(1H-imidazol-5-yl)ethyl)-1-(pyridin-2-yl)ethan-1-amine]
